ChEMBL document CHEMBL1124834, “5-HT1 and 5-HT2 binding profiles of the serotonergic agents alpha-methylserotonin and 2-methylserotonin” (J Med Chem, 1990)

Experiments:
[1] = molecular target: Serotonin 2 (5-HT2) receptor (Rattus norvegicus, UniProt P30994+P08909+P14842)
[2] = molecular target: 5-hydroxytryptamine receptor 1B (Rattus norvegicus, UniProt P28564)
[3] = molecular target: T1, 5-hydroxytryptamine receptor 2C (Rattus norvegicus, UniProt P08909)
T1 sequence (P08909 whole entry): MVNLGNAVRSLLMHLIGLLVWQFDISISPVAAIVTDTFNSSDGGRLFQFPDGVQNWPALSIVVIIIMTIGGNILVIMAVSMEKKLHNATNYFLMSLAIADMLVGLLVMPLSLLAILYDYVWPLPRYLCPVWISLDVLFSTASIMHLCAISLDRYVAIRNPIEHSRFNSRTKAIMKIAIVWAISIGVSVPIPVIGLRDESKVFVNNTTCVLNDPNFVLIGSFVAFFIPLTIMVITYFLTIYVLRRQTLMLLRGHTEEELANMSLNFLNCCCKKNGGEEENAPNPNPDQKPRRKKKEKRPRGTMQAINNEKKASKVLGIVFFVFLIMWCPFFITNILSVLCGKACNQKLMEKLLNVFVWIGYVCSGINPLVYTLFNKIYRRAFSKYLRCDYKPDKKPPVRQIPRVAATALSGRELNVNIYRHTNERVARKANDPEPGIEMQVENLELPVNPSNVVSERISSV

[4] = molecular target: T2, 5-hydroxytryptamine receptor 1A (Rattus norvegicus, UniProt P19327)
T2 sequence (P19327 whole entry): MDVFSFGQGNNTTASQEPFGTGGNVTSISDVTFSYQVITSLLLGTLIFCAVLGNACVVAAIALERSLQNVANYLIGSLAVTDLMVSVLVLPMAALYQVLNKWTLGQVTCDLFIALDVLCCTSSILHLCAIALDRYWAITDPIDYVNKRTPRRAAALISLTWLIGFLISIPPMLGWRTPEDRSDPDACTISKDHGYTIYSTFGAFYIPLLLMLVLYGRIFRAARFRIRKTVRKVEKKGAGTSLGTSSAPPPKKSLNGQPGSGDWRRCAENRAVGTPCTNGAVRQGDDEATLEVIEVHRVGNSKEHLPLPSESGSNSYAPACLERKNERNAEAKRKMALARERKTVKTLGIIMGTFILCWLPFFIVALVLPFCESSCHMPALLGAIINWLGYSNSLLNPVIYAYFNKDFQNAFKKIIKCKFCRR

[5] = molecular target: 5-hydroxytryptamine receptor 1E (Homo sapiens, UniProt P28566)
Sequence of 5-hydroxytryptamine receptor 1E (P28566 whole entry): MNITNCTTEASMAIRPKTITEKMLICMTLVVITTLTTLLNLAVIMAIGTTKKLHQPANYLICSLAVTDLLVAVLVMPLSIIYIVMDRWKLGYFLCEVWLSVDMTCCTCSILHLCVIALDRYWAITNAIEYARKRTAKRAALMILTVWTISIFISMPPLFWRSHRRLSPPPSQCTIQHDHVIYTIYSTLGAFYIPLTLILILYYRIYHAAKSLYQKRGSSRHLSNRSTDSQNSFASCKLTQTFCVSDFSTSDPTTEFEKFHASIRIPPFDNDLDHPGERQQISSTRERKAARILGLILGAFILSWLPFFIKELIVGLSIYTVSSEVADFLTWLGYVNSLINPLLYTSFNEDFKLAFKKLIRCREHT

Sequence of 5-hydroxytryptamine receptor 1B (P28564 whole entry): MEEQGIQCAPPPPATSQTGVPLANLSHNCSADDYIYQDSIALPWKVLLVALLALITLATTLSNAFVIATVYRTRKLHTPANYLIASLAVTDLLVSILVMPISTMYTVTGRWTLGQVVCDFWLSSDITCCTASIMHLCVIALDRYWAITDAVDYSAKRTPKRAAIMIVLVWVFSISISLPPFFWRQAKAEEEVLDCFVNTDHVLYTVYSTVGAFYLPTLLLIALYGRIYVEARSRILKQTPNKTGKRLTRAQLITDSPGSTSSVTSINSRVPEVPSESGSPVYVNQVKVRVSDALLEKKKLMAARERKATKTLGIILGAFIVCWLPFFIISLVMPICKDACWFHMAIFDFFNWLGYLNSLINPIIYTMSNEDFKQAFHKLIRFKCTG

| Compound | Ki [1] [nM] | Ki [2] [nM] | Ki [3] [nM] | Ki [4] [nM] | Ki [5] [nM] |
| --- | --- | --- | --- | --- | --- |
| Cc1[nH]c2ccc(O)cc2c1CCN | > 10000 | 520 | 650 | 1200 | > 10000 |
| COc1ccc2[nH]c(C)c(CCN)c2c1 | > 10000 | 800 | 690 | 1300 | > 10000 |
